Where a name gives a salt, the structure may show the parent alone. Read-outs that look alike come from different tables or passages of the source.
Molecular target: T1, P2X7 (Homo sapiens, UniProt Q99572)
T1 sequence (Q99572 1-595): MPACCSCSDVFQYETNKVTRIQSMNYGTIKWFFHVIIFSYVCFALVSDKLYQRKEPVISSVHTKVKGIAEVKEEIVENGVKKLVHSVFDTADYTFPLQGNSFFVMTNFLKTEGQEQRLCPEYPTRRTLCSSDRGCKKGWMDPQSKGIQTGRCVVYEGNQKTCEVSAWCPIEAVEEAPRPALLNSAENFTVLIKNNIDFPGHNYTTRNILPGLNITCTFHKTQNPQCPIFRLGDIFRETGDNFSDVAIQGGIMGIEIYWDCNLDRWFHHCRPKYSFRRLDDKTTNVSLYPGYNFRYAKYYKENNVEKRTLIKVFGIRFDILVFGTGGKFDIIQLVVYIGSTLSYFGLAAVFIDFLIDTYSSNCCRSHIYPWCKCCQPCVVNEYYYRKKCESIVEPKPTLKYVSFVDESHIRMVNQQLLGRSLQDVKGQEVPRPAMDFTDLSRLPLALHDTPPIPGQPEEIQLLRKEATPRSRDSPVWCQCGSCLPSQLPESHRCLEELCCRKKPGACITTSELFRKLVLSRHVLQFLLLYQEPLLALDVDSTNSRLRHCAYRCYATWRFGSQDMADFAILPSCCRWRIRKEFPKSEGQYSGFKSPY
Assay: YO-PRO-1 dye uptake assay in U373 cells stably expressing P2X7
Type: cell-based
Design: The complete open reading frame of human P2X7 was amplified from Incyte clone 148057; expressed in transfected cells
Settings: dye uptake through P2X7, U373 cells, 300 μM BzATP, 5 μM YO-PRO-1, test compounds 30 nM to 3 μM
Procedure: Following a 24-hr exposure to DNA, cells were trypsinized and re-seeded at low density in the presence of […] G418. After incubation for 2 weeks, isolated clones were selected with cloning cylinders and replated in […] G418. Cell clones were then expanded. Clones were screened for P2X7 by applying ATP and recording the resultant current using patch clamp electrophysiology.
U373 cells stably expressing P2X7 were used to screen drugs via a dye uptake assay. Cells were plated overnight on collagen coated 96-well plates at a density of 35,000 cells per well. The following day, culture media was replaced with Mg^++ and Ca^++-free Hank's balanced salt solution and various concentrations of test compounds ranging from 30 nM to 3 μM. Cells were then allowed to incubate with test compounds at 37° C. for 20 minutes. Following this incubation period YO-PRO-1 dye (Molecular Probes, Eugene, Oreg., final concentration 5 μM) and 2′-& 3′-O-(4-Benzolybenzoyl)-Adenosine 5′-triphosphate (Sigma Chemical, St Louis, Mo., final concentration 300 μM) were added to the cells sequentially. Cells were then incubated at 37° C. for 1.5 hours. […] Fluorescence in the presence of test substances was compared to that in the absence of test substances (control).

Question: `C[C@@]1(c2ccccc2)N=C(COCC2CC2)N[C@@H]1c1ccccc1` (relative stereo) [2-[[(Cyclopropyl)methoxy]methyl]-cis-4,5-diphenyl-4-methyl-4,5-dihydro-1H-imidazole trifluoroacetate] was tested. Which IC50 (read-out: IC50) did it give?
Answer: 676 nM

Question: For `C[C@@]1(c2cccc(F)c2)N=C(CCc2ccccc2)N[C@@H]1c1cccc(F)c1` (relative stereo) [2-Phenethyl-cis-4,5-bis-(3-fluorophenyl)-4-methyl-4,5-dihydro-1H-imidazole hydrochloride], which IC50 (read-out: IC50) is on record?
Answer: 66 nM

Question: With `C[C@H](C1=N[C@@H](c2ccccc2)[C@@H](c2ccccc2)N1)c1ccccc1` [trifluoroacetate] as the compound, how does the IC50 (read-out: IC50) read?
Answer: 110 nM

Question: How did the IC50 (read-out: IC50) turn out when `Cc1ccccc1[C@H]1NC(NCc2cccc(F)c2)=N[C@H]1c1ccccc1C` [[cis-4,5-bis-(2-Methylphenyl)-4,5-dihydro-1H-imidazol-2-yl]-(3-fluorobenzyl)amine hydrochloride] was run?
Answer: 121 nM

Question: With `Fc1cccc(CCC2=N[C@@H](c3cccc(F)c3)[C@@H](c3cccc(F)c3)N2)c1` [2-[2-(3-Fluorophenyl)ethyl]-cis-4,5-bis-(3-fluorophenyl)-4,5-dihydro-1H-imidazole trifluoroacetate] as the compound, how does the IC50 (read-out: IC50) read?
Answer: 79 nM

Question: How did the IC50 (read-out: IC50) turn out when `Clc1ccccc1CSC1=N[C@@H](c2ccccc2)[C@@H](c2ccccc2)N1` [cis-4,5-diphenyl-2-(2-chlorobenzyl)thio-4,5-dihydro-1H-imidazole] was run?
Answer: 630 nM

Question: How did the IC50 (read-out: IC50) turn out when `Fc1ccc(CNC2=N[C@@H](c3ccc(F)cc3)[C@@H](c3ccc(F)cc3)N2)cc1` was run?
Answer: 338 nM

Question: `Cc1cccc(CNC2=N[C@@H](c3ccccc3F)[C@@H](c3ccccc3F)N2)c1` [[cis-4,5-bis-(2-Fluorophenyl)-4,5-dihydro-1H-imidazol-2-yl]-(3-methylbenzyl)amine hydrochloride] was tested. Which IC50 (read-out: IC50) did it give?
Answer: 379 nM

Question: How did the IC50 (read-out: IC50) turn out when `Cc1cccc([C@H]2NC(NCc3ccccc3)=N[C@H]2c2cccc(C)c2)c1` [[cis-4,5-bis-(3-Methylphenyl)-4,5-dihydro-1H-imidazol-2-yl]-benzylamine hydrochloride] was run?
Answer: 157 nM

Question: `Cc1cccc([C@H]2NC(NCc3ccc(F)c(F)c3)=N[C@H]2c2cccc(C)c2)c1` [[cis-4,5-bis-(3-Methylphenyl)-4,5-dihydro-1H-imidazol-2-yl]-(3,4-difluorobenzyl)-amine hydrochloride] was tested. Which IC50 (read-out: IC50) did it give?
Answer: 118 nM

Question: Which results are given for `Fc1cccc(CC2=N[C@H](c3ccccc3)[C@H](c3ccccc3)N2)c1` [cis-4,5-diphenyl-2-(3-fluorobenzyl)-4,5-dihydro-1H-imidazole]?
Answer: IC50 (IC50 (nM)): 80 nM; IC50 (read-out: IC50): 84 nM

Question: Which IC50 (read-out: IC50) does the source give for `Fc1ccccc1CC1=N[C@H](c2ccccc2)[C@H](c2ccccc2)N1` [cis-4,5-diphenyl-2-(2-fluorobenzyl)-4,5-dihydro-1H-imidazole] here?
Answer: 577 nM

Question: With `c1ccc(CCNC2=N[C@@H](c3ccccc3)[C@@H](c3ccccc3)N2)cc1` [cis-4,5-diphenyl-2-[(2-phenyl)ethyl]amino-4,5-dihydro-1H-imidazole] as the compound, how does the IC50 (read-out: IC50) read?
Answer: 113 nM

Question: Which IC50 (read-out: IC50) does the source give for `c1ccc(CNC2=N[C@@H](c3ccccc3)[C@@H](c3ccccc3)N2)cc1` [cis-4,5-diphenyl-2-benzylamino-4,5-dihydro-1H-imidazole] here?
Answer: 135 nM

Question: For `Fc1ccc(CC2=N[C@@H](c3ccccc3)[C@@H](c3ccccc3)N2)cc1F` [2-(3,4-Difluorobenzyl)-cis-4,5-diphenyl-4,5-dihydro-1H-imidazole trifluoroacetate], which IC50 (read-out: IC50) is on record?
Answer: 24 nM

Question: For `Fc1ccc(CNC2=N[C@@H](c3ccccc3)[C@@H](c3ccccc3)N2)c(Cl)c1` [cis-4,5-diphenyl-2-(2-chloro-4-fluorobenzyl)amino-4,5-dihydro-1H-imidazole], which IC50 (read-out: IC50) is on record?
Answer: 247 nM

Question: For `C[C@@]1(c2ccccc2)N=C(COC2CCCC2)N[C@@H]1c1ccccc1` (relative stereo) [2-[(Cyclopentyloxy)methyl]-cis-4,5-diphenyl-4-methyl-4,5-dihydro-1H-imidazole hydrochloride], which IC50 (read-out: IC50) is on record?
Answer: 487 nM

Question: Which IC50 (read-out: IC50) does the source give for `Fc1ccc(CCC2=N[C@@H](c3cccc(F)c3)[C@@H](c3cccc(F)c3)N2)cc1` [2-[2-(4-Fluorophenyl)ethyl]-cis-4,5-bis-(3-fluorophenyl)-4,5-dihydro-1H-imidazole trifluoroacetate] here?
Answer: 572 nM

Question: With `Clc1ccccc1[C@H]1NC(NCc2ccccc2)=N[C@H]1c1ccccc1Cl` [[cis-4,5-bis-(2-Chlorophenyl)-4,5-dihydro-1H-imidazol-2-yl]-benzylamine hydrochloride] as the compound, how does the IC50 (read-out: IC50) read?
Answer: 925 nM

Question: Which IC50 (read-out: IC50) does the source give for `Cc1cccc(CCC2=N[C@@H](c3cccc(F)c3)[C@@H](c3cccc(F)c3)N2)c1` [2-[2-(3-Methylphenyl)ethyl]-cis-4,5-bis-(3-fluorophenyl)-4,5-dihydro-1H-imidazole trifluoroacetate] here?
Answer: 385 nM

Question: Which IC50 (read-out: IC50) does the source give for `Fc1ccc(CNC2=N[C@@H](c3ccccc3Cl)[C@@H](c3ccccc3Cl)N2)cc1` [[cis-4,5-bis-(2-Chlorophenyl)-4,5-dihydro-1H-imidazol-2-yl]-(4-fluorobenzyl)amine hydrochloride] here?
Answer: 624 nM

Question: `Clc1ccccc1CCC1=N[C@@H](c2ccccc2)[C@@H](c2ccccc2)N1` [2-[2-(2-Chlorophenyl)ethyl]-cis-4,5-diphenyl-4,5-dihydro-1H-imidazole trifluoroacetate] was tested. Which IC50 (read-out: IC50) did it give?
Answer: 48 nM

Question: `Fc1cccc(CNC2=N[C@@H](c3ccccc3Cl)[C@@H](c3ccccc3Cl)N2)c1` [[cis-4,5-bis-(2-Chlorophenyl)-4,5-dihydro-1H-imidazol-2-yl]-(3-fluorobenzyl)amine hydrochloride] was tested. Which IC50 (read-out: IC50) did it give?
Answer: 592 nM

Question: How did the IC50 (read-out: IC50) turn out when `Fc1cccc([C@H]2NC(COc3ccccc3F)=N[C@H]2c2cccc(F)c2)c1` [2-[(2-Fluorophenoxy)methyl]-cis-4,5-bis-(3-fluorophenyl)-4,5-dihydro-1H-imidazole] was run?
Answer: 834 nM

Question: `Fc1cccc(CNC2=N[C@@H](c3ccccc3)[C@@H](c3ccccc3)N2)c1` [(cis-4,5-Diphenyl-4,5-dihydro-1H-imidazol-2-yl)-(3-fluorobenzyl)amine hydrochloride] was tested. Which IC50 (read-out: IC50) did it give?
Answer: 89 nM

Question: For `Fc1ccccc1[C@H]1NC(NCc2ccccc2)=N[C@H]1c1ccccc1F` [(cis-4,5-bis-(2-Fluorophenyl)-4,5-dihydro-1H-imidazol-2-yl)-benzylamine hydrochloride], which IC50 (read-out: IC50) is on record?
Answer: 531 nM

Question: How did the IC50 (read-out: IC50) turn out when `Fc1ccc(CNC2=N[C@@H](c3ccccc3F)[C@@H](c3ccccc3F)N2)cc1` [(cis-4,5-bis-(2-Fluorophenyl)-4,5-dihydro-1H-imidazol-2-yl)-(4-fluorobenzyl)amine hydrochloride] was run?
Answer: 390 nM

Question: `Fc1cccc(COCC2=N[C@@H](c3ccccc3)[C@@H](c3ccccc3)N2)c1` [2-[(3-Fluorobenzyloxy)methyl]-cis-4,5-diphenyl-4,5-dihydro-1H-imidazole hydrochloride] was tested. Which IC50 (read-out: IC50) did it give?
Answer: 274 nM

Question: `Clc1ccccc1CNC1=N[C@@H](c2ccccc2)[C@@H](c2ccccc2)N1` [cis-4,5-diphenyl-2-(2-chlorobenzyl)amino-4,5-dihydro-1H-imidazole] was tested. Which IC50 (read-out: IC50) did it give?
Answer: 587 nM

Question: `CC(Oc1ccccc1)C1=N[C@@](C)(c2ccccc2)[C@@H](c2ccccc2)N1` (relative stereo) [2-(1-Phenoxyethyl)-cis-4,5-diphenyl-4-methyl-4,5-dihydro-1H-imidazole trifluoroacetate] was tested. Which IC50 (read-out: IC50) did it give?
Answer: 356 nM

Question: For `Fc1cccc([C@H]2NC(CCc3ccccc3)=N[C@H]2c2cccc(F)c2)c1` [cis-4,5-bis(3-fluorophenyl)-2-(2-phenylethyl)-4,5-dihydro-1H-imidazole], which IC50 (read-out: IC50) is on record?
Answer: 146 nM

Question: For `Cc1ccccc1CSC1=N[C@@H](c2ccccc2)[C@@H](c2ccccc2)N1` [cis-4,5-diphenyl-2-(2-methylbenzyl)thio-4,5-dihydro-1H-imidazole], which IC50 (read-out: IC50) is on record?
Answer: 449 nM

— patent US7741493B2, “Heterocyclic compounds as P2X7 ion channel blockers” (Aventis Pharmaceuticals Inc., priority 2003, dated 2010)
